Data reported in patent publication US11365188B2, “JAK inhibitors” (priority 2018, dated 2022).

Assays:
Format in all cases: biochemical
[1] = target: JAK2 (Homo sapiens, UniProt O60674); assay: JAK2 Assay (Caliper EZ Reader, fluoresceinated peptide); conditions: ATP 11.4 μM; JAK2 0.25 nM; 15 minutes at room temperature; read-out: JAK2 inhibition
Description: JAK2 Assay 384-well plates in the left foot butoxy measured progress. The final assay volume was 25 μL, 250 nL 100× compounds, 10 μL enzyme mix and 15 μL substrate mix (fluoresceinated peptide and ATP) in assay buffer (50 mM HEPES (pH 7.5), 10 mM MgCl2, 0.01% TritonX-100, 0.01% Brij35, 0.5 mM EGTA and 2 mM DTT) prepared as test compound By mixing the JAK2 with substrates and test compounds to start the reaction. The reaction mixture was incubated for 15 minutes at room temperature, then added 30 μL stop buffer for each sample to terminate the reaction with 50 mM EDTA. After termination of the kinase reaction, the proportion of phosphorylated product was determined as a fraction of total peptide substrate using Caliper EZ Reader 1 Inhibition data were calculated by comparison with 100% of the reaction mixture without enzyme inhibition and vehicle-only reaction mixture billion % inhibition compared. The final concentration of reagents in the assays is: ATP, 11.4 μM; JAK2 fluorescent peptide (5-FAM-EEPLYWSFPAKKK-CONH2), 3 μM; JAK2, 0.25 nM; and DMSO, 1%. Dose response curve were generated to determine the concentration required for IC50 of JAK2 activity.

[2] = target: JAK1 (Homo sapiens, UniProt P23458); assay: JAK Kinase Assay (JAK1, Caliper EZ Reader, fluoresceinated peptide); conditions: ATP 76.5 μM; JAK1 10 nM; 120 minutes at room temperature; read-out: JAK1 inhibition
Description: JAK Kinase Assay 384-well plates in the left foot butoxy measured progress. The final assay volume was 25 μL, 250 nL 100× compounds, 10 μL enzyme mix and 15 μL substrate mix (fluoresceinated peptide and ATP) in assay buffer (20 mM HEPES (pH 7.5), 10 mM MgCl2, […], 0.5 mM EGTA and 2 mM DTT) prepared as test compound. By mixing the JAK1 with substrates and test compounds to start the reaction. There action mixture was incubated for 120 minutes at room temperature, then added 30 μL stop buffer for each sample to terminate the reaction with 50 mM EDTA. After termination of the kinase reaction, the proportion of phosphorylated product was determined as a fraction of total peptide substrate using Caliper EZ Reader II. Inhibition data were calculated by comparison with 100% of the reaction mixture without enzyme inhibition and vehicle-only reaction mixture billion % inhibition compared. The final concentration of reagents in the assays is: ATP, 76.5 μM; JAK1 fluorescent peptide (5-FAM-EEPLYWSFPAKKK-CONH2), 3 μM; JAK1, 10 nM, and DMSO, 1%. Dose response curve were generated to determine the concentration required for IC50 of JAK activity.

[3] = target: T1, JAK3 (Homo sapiens, UniProt P52333); assay: JAK3 Assay (Caliper EZ Reader, fluoresceinated peptide); conditions: ATP 3.5 μM; JAK3 0.5 nM; 30 minutes at room temperature; read-out: JAK3 inhibition
T1 sequence (P52333 1-1124): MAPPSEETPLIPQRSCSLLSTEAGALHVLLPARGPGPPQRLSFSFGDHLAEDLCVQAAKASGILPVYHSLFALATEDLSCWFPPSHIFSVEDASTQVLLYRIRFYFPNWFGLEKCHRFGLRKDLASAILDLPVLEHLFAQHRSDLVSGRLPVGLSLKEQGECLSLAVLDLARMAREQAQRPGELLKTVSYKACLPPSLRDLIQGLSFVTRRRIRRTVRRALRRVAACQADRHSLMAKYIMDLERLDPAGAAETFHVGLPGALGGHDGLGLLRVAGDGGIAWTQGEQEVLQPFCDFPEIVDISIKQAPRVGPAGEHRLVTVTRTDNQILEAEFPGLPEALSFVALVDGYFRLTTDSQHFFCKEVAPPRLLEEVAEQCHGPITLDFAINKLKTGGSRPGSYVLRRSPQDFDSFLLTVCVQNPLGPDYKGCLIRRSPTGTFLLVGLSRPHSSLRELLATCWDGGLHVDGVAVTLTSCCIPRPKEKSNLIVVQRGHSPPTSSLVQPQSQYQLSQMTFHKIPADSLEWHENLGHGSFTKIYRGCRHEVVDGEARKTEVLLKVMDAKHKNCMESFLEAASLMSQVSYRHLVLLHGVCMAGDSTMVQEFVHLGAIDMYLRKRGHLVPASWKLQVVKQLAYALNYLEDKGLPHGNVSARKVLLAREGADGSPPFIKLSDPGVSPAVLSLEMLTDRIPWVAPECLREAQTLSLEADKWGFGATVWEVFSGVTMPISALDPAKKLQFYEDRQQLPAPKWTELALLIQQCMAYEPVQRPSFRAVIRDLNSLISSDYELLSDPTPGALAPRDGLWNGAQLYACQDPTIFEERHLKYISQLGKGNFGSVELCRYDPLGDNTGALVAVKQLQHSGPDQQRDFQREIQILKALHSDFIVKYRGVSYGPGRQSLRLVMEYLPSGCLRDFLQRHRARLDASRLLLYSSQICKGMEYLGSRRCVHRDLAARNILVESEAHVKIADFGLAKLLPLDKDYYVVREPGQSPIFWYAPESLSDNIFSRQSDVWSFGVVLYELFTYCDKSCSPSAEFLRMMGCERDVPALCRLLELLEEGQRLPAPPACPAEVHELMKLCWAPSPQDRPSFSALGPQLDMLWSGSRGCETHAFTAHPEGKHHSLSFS
Description: JAK3 Assay 384-well plates in the left foot butoxy measured progress. The final assay volume was 25 μL, 250 nL 100× compounds, 10 μL enzyme mix and 15 μL substrate mix (fluoresceinated peptide and ATP) in assay buffer (50 mM HEPES (pH 7.5), 10 mM MgCl2, 0.01% TritonX-100, 0.01% Brij35, 0.5 mM EGTA and 2 mM DTT) prepared as test compound. By mixing the JAK3 with substrates and test compounds to start the reaction. The reaction mixture was incubated for 30 minutes at room temperature, then added 30 μL stop buffer for each sample to terminate the reaction with 50 mM EDTA. After termination of the kinase reaction, the proportion of phosphorylated product was determined as a fraction of total peptide substrate using Caliper EZ Reader II. Inhibition data were calculated by comparison with 100% of the reaction mixture without enzyme inhibition and vehicle-only reaction mixture billion % inhibition compared. The final concentration of reagents in the assays is: ATP, 3.5 μM; JAK3 fluorescent peptide (5-FAM-EEPLYWSFPAKKK-CONH2), 3 μM; JAK3, 0.5 nM; and DMSO, 1%. Dose response curve were generated to determine the concentration required for IC50 of JAK3 activity.

Chain of JAK2 (O60674 whole entry, species assumed): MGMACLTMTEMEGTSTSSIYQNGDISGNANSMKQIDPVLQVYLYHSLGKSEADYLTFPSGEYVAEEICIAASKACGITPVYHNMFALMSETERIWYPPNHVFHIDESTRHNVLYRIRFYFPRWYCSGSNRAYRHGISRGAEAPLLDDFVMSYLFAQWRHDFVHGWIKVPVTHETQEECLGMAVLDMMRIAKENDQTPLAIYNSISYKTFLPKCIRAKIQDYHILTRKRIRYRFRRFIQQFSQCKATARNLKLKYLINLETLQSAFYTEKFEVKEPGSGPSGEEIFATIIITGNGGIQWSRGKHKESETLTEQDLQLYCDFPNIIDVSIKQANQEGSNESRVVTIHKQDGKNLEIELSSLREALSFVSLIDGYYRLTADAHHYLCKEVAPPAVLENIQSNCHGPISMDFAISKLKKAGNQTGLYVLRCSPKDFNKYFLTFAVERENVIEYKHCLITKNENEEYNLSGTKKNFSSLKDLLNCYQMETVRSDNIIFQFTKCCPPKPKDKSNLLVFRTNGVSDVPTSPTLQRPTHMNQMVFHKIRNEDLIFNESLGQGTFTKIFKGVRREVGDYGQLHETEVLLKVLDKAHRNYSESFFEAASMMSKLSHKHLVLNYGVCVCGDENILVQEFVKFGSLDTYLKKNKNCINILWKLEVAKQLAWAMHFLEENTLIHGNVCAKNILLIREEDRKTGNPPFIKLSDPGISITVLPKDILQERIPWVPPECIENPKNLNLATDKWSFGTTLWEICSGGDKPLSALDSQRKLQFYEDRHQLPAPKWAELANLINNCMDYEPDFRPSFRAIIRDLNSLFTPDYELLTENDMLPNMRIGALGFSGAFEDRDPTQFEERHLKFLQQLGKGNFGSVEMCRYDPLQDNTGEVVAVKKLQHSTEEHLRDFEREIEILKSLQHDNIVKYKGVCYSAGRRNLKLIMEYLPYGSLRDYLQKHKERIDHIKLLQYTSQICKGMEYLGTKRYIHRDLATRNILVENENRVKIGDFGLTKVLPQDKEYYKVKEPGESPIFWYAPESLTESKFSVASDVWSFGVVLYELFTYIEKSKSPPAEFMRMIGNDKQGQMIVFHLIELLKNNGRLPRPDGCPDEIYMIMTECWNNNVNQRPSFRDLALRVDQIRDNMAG
Chain of JAK1 (P23458 whole entry, species assumed): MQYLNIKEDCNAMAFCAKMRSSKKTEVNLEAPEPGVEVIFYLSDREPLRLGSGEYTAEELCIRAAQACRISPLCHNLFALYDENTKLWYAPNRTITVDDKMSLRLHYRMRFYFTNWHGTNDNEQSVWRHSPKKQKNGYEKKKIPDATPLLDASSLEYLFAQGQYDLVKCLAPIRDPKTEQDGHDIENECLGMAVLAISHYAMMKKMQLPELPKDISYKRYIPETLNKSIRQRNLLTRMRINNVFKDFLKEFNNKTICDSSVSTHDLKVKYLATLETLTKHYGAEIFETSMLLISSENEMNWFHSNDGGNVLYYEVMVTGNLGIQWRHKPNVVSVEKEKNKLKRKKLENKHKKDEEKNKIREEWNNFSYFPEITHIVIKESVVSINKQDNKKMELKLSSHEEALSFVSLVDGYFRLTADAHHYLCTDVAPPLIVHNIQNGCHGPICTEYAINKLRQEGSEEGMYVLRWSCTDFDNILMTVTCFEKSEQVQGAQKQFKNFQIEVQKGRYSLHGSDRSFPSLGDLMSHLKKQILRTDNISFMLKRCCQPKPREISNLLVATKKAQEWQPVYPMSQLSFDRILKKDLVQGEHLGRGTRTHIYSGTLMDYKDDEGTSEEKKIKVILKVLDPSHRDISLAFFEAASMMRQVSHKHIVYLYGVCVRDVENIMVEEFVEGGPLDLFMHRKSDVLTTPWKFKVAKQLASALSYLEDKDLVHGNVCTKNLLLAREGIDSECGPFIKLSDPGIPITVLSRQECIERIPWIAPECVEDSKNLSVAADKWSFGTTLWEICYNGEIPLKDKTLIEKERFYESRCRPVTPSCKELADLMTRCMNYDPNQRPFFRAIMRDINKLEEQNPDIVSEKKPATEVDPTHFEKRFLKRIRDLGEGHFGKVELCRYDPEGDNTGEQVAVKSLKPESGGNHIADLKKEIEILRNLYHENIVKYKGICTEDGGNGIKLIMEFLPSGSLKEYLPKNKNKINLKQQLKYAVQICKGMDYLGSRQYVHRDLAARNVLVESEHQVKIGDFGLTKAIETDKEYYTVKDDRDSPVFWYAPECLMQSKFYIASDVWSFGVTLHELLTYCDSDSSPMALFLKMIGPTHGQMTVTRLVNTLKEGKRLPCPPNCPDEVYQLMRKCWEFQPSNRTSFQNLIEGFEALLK

| IC50 [1] [µM] | IC50 [2] [µM] | IC50 [3] [µM] | Compound |
| --- | --- | --- | --- |
| 0.1 to 1 | 0.01 to 0.1 | 1 to 10 | CN(c1ncnc2[nH]ccc12)C1CCC2(CC1)CCN(C(=O)C1CC1)CC2 [Compound 99, Cyclopropyl-{9-[methyl-(7H-pyrrolo[2,3-d]pyrimidin-4-yl)-amino]-3-aza-spiro[5.5]undec-3-yl}-methanone] |
| 0.1 to 1 | 0.1 to 1 | 1 to 10 | CN(c1ncnc2[nH]ccc12)C1CCC2(CC1)CCN(C(=O)CCC(F)(F)F)CC2 [Compound 91, 4,4,4-Trifluoro-1-{9-[methyl-(7H-pyrrolo[2,3-d]pyrimidin-4-yl)-amino]-3-aza-spiro[5.5]undec-3-yl}-butan-1-one] |
| 0.1 to 1 | 0.1 to 1 | 0.1 to 1 | CN(c1ncnc2[nH]ccc12)C1CCC2(CC1)CCN(C(=O)c1csc3ccccc13)CC2 [Compound 92, Benzo[b]thiophen-3-yl-{9-[methyl-(7H-pyrrolo[2,3-d]pyrimidin-4-yl)-amino]-3-aza-spiro[5.5]undec-3-yl}-methanone] |
| 1 to 10 | 0.01 to 0.1 | 1 to 10 | C#Cc1ccc(C(=O)N2CC3(CC(N(C)c4ncnc5[nH]ccc45)C3)C2)nc1 [Compound 48, (5-ethynylpyridin-2-yl)(6-(methyl(7H-pyrrolo[2,3-d]pyrimidin-4-yl)amino)-2-azaspiro[3.3]heptan-2-yl)methanon] |
| 0.01 to 0.1 | 0.01 to 0.1 | 0.1 to 1 | CC(=O)N1CCC2(CCC(N(C)c3ncnc4[nH]ccc34)CC2)CC1 [Compound 75, 1-{9-[Methyl-(7H-pyrrolo[2,3-d]pyrimidin-4-yl)-amino]-3-aza-spiro[5.5]undec-3-yl}-ethanone] |
| 0.1 to 1 | 0.01 to 0.1 | 1 to 10 | CN(c1ncnc2[nH]ccc12)C1CC2(C1)CN(C(=O)C1CCC(=O)CC1)C2 [Compound 12, 4-(6-(methyl(7H-pyrrolo[2,3-d]pyrimidin-4-yl)amino)-2-azaspiro[3.3]heptane-2-carbonyl)cyclohexanone] |
| 1 to 10 | 0.1 to 1 | 1 to 10 | CN(c1ncnc2[nH]ccc12)C1CC2(C1)CN(C(=O)c1cccc(C(F)(F)F)c1)C2 [Compound 13, (6-(methyl(7H-pyrrolo[2,3-d]pyrimidin-4-yl)amino)-2-azasprio[3.3]heptan-2-yl)(3-(trifluoromethyl)phenyl)methanone] |
| 0.1 to 1 | 0.1 to 1 | 1 to 10 | CCC(=O)N1CC2(CC(N(C)c3ncnc4[nH]ccc34)C2)C1 [Compound 5, 1-(6-(methyl(7H-pyrrolo[2,3-d]pyrimidin-4-yl)amino)-2-azaspiro[3.3]heptan-2-yl)propan-1-one] |
| 0.1 to 1 | 0.1 to 1 | 1 to 10 | CN(c1ncnc2[nH]ccc12)C1CCC2(CC1)CCN(C(=O)c1cc3ccccc3s1)CC2 [Compound 105, Benzo[b]thiophen-2-yl-{9-[methyl-(7H-pyrrolo[2,3-d]pyrimidin-4-yl)-amino]-3-aza-spiro[5.5]undec-3-yl}-methanone] |
| 0.1 to 1 | 0.1 to 1 | 1 to 10 | CCCC(=O)N1CCC2(CCC(N(C)c3ncnc4[nH]ccc34)CC2)CC1 [Compound 100, 1-{9-[Methyl-(7H-pyrrolo[2,3-d]pyrimidin-4-yl)-amino]-3-aza-spiro[5.5]undec-3-yl}-butan-1-one] |
| 1 to 10 | 0.1 to 1 | ≥ 10 | Cc1cc(C#N)ccc1C(=O)N1CC2(CC(N(C)c3ncnc4[nH]ccc34)C2)C1 [Compound 44, 3-methyl-4-(6-(methyl(7H-pyrrolo[2,3-d]pyrimidin-4-yl)amino)-2-azaspiro[3.3]heptane-2-carbonyl)benzonitrile] |
| 0.1 to 1 | 0.01 to 0.1 | 1 to 10 | CC(C)OC(=O)N1CCC2(CCC(N(C)c3ncnc4c3CCN4)CC2)CC1 [Compound 98, 9-[(6,7-Dihydro-5H-pyrrolo[2,3-d]pyrimidin-4-yl)-methyl-amino]-3-aza-spiro[5.5]undecane-3-carboxylic acid isopropyl ester] |
| 0.1 to 1 | ≤ 0.01 | 0.1 to 1 | COC(=O)N1CCC2(CCC(N(C)c3ncnc4[nH]ccc34)CC2)CC1 [Compound 73, Methyl 9-(methyl(7H-pyrrolo[2,3-d]pyrimidin-4-yl)amino)-3-azaspiro[5.5]undecane-3-carboxylate] |
| 0.1 to 1 | 0.1 to 1 | 1 to 10 | CN(c1ncnc2[nH]ccc12)C1CCC2(CC1)CCN(C(=O)c1cccc(OC(F)(F)F)c1)CC2 [Compound 101, {9-[Methyl-(7H-pyrrolo[2,3-d]pyrimidin-4-yl)-amino]-3-aza-spiro[5.5]undec-3-yl}-(3-trifluoromethoxy-phenyl)-methanone] |
| 1 to 10 | 0.01 to 0.1 | 1 to 10 | CN(c1ncnc2[nH]ccc12)C1CC2(C1)CN(C(=O)c1ccc(C#N)nc1)C2 [Compound 35, 5-(6-(methyl(7H-pyrrolo[2,3-d]pyrimidin-4-yl)amino)-2-azaspiro[3.3]heptane-2-carbonyl)picolinonitrile] |
| 0.1 to 1 | 0.1 to 1 | 1 to 10 | Cc1cncc(C(=O)N2CCC3(CCC(N(C)c4ncnc5[nH]ccc45)CC3)CC2)n1 [Compound 90, (6-Methyl-pyrazin-2-yl)-{9-[methyl-(7H-pyrrolo[2,3-d]pyrimidin-4-yl)-amino]-3-aza-spiro[5.5]undec-3-yl}-methanone] |
| 1 to 10 | 0.1 to 1 | 1 to 10 | CN(c1ncnc2[nH]ccc12)C1CC2(C1)CN(C(=O)c1ccc(-c3ccn(C)n3)cc1)C2 [Compound 68] |
